# Tests used:
# KBM7_WT cells = experiment: Cell viability assay (CellTiter Glo), KBM7 wild-type, 3-day treatment; format: cell-based; details: Homo sapiens, KBM-7, 72 h, read-out: LC50 KBM7_WT
# Procedure: (§1) KBM7^WT, UBE2M and CUL4B mutant KBM7 clones (UBE2M^mut and CUL4B^mut) were seeded at a cell density of 50,000 cells/mL in 96-well with DMSO or degraders Z1 to Z3, Z5 to Z7, Z9 to Z11, Z13 and Z14 in triplicates. Cells were treated for 3 days, after which a cell viability assay was performed (CellTiter Glo, Promega), according to manufacturer's protocol. Survival curves and IC50 values (LC50 values) were calculated by best-fit analysis of the log 10 drug concentration to fold change of drug-treated cells over DMSO-treated cells. All survival assays included technical triplicates per sample, per experiment.
# (§2) Compounds, Z1 to Z3, Z5 to Z7, Z9 to Z11, Z13 and Z14, were tested for their antiproliferative effects in human leukemia cells (KBM7). These cells were either transduced with a control sgRNA (KBM7_WT), or with an sgRNA targeting UBE2M or CUL4B, leading to a hypomorph (deletion of six amino acids) with a functional impairment (UBE2M_MUT).
# (§3) Indeed, 11 compounds Z1 to Z3, Z5 to Z7, Z9 to Z11, Z13 and Z14 were identified to fulfill these criteria and to stand out in terms of fold-change significance; see, e.g., FIG. 1 and Table 1. The dose ranging differential effect of these hits was assessed/validated, comparing their activity in KBM7_WT (KBM7^WT) vs UBE2_MUT and CUL4B_MUT cells (UBE2M^mut and CUL4B^mut).
# CUL4B_MUT KBM7 cells = experiment: Cell viability assay (CellTiter Glo), CUL4B mutant KBM7 clone, 3-day treatment; format: cell-based; details: Homo sapiens, KBM-7, 72 h, CUL4B mutant KBM7, 3-day treatment, read-out: LC50 CUL4B_MUT
# Procedure: as §1, §2, §3
# UBE2M_MUT KBM7 cells = experiment: Cell viability assay (CellTiter Glo), UBE2M mutant KBM7 clone, 3-day treatment; format: cell-based; details: Homo sapiens, KBM-7, 72 h, UBE2M mutant KBM7, 3-day treatment, read-out: LC50 UBE2M_MUT
# Procedure: as §1, §2, §3
# Cyclin K = details: cited from earlier work
# [1] = biological target: Nanoluc_DDB1 (N-terminal Nanoluc luciferase, G4S linker, DDB1 (FL)) (UniProt Q16531); experiment: NanoBRET in HEK293T cells, 10 µM compound Example 3-48; class B = 3-4 fold increase
# Nanoluc_DDB1 (N-terminal Nanoluc luciferase, G4S linker, DDB1 (FL)), sequence (Q16531 other isoform, or with tags, fused parts or gaps): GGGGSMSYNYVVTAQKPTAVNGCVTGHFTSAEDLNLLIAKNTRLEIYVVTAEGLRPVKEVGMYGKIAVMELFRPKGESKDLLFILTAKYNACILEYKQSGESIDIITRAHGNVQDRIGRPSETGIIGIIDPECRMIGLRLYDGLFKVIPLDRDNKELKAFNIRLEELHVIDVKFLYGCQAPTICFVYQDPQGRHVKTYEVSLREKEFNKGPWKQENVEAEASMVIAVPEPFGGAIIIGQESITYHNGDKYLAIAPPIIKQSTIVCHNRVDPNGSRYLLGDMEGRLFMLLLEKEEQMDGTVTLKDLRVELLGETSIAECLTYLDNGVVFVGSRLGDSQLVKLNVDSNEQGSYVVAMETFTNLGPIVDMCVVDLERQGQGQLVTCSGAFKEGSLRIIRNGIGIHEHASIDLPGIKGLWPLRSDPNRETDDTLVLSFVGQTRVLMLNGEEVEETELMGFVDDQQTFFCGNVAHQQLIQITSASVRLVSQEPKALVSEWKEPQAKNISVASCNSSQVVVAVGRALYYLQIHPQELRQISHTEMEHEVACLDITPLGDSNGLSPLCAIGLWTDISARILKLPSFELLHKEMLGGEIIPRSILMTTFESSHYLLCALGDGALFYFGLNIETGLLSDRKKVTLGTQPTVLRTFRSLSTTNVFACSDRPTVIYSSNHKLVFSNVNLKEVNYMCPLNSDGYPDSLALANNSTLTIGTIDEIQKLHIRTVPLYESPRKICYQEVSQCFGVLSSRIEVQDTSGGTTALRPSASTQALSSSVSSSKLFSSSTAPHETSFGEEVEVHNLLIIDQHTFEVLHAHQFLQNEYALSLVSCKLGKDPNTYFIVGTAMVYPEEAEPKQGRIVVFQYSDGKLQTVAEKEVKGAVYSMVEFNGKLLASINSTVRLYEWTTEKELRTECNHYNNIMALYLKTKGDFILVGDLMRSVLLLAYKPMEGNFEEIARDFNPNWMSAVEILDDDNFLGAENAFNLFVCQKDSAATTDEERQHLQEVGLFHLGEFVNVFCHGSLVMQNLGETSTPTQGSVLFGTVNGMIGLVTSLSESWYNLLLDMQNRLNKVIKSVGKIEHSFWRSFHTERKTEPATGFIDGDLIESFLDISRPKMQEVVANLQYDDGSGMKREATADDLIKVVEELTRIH
# [2] = biological target: T1, Cdk12 (696-1,082)/CycK (1-267) protein complex (Homo sapiens, UniProt Q9NYV4); experiment: Cdk12 [high ATP] in vitro kinase activity assay; format: biochemical; details: physiological ATP concentrations (1 mM ATP), 50 μM compound
# T1 construct: Cdk12 (696-1,082)/CycK (1-267) protein complex
# T1 sequence (Q9NYV4 696-1082 limits assumed): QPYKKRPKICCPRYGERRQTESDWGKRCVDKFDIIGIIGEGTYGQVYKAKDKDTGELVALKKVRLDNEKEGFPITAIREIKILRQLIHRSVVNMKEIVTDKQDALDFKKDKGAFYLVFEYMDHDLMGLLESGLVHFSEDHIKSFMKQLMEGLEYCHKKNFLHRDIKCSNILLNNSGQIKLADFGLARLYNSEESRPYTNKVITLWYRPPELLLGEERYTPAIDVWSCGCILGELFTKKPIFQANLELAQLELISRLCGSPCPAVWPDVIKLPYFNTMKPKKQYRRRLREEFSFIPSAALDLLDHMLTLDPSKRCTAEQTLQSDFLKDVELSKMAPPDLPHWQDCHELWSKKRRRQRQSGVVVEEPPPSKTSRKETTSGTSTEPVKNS
# T1 sequence (O75909 1-267 partner limits assumed): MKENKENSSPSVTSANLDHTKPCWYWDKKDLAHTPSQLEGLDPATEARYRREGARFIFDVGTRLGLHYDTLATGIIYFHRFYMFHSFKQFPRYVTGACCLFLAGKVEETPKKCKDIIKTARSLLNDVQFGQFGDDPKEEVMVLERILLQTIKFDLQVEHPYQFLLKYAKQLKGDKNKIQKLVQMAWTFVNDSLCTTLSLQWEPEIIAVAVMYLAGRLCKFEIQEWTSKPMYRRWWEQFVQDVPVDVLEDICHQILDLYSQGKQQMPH
# Procedure: This assay on recombinant proteins allows assessment of the extent of inhibition of CDK12 kinase activity of compounds. The added benefit of Cyclin K degradation as opposed to CDK12 inhibition alone can thereby be estimated. The observed disconnect between CDK12 inhibition and efficacy in the KBM7 cell viability assay supports an important contribution of Cyclin K degradation to the therapeutic effect.
# Kinase reactions (50 μl) were carried out with recombinant highly purified proteins. Cdk12 (696-1,082)/CycK (1-267) protein complex (0.5 μM) was preincubated with 50 μM of compound and vehicle control (DMSO) for 10 minutes at room temperature in kinase buffer (40 mM Tris pH 7.5, 20 mM MgCl2, 0.1 mg/ml BSA) prior the addition of pS7-CTD substrate peptide (Ac-YSPTSP-pS-YSPTSP-pS-YSPTSP-pS-Y-PEG2-RR-amide, 95% purity, Biosyntan, Germany) (100 μM) and further 10 min incubation at room temperature. Cold ATP (to a final concentration of 1 mM) was added, and the reaction mixture was incubated for 60 min at 30° C. at 500 rpm. Kinase activity was determined using the ADP-Glo™ Kinase Assay (Promega). The luminescence signal was measured using the multimode plate reader EnVision 2105 (Perkin Elmer).
# Uniprot protein codes: (Cdk12) Q9NYV4, (CycK) 075909
# CCNK = experiment: NanoLuc-CCNK degradation assay (HEK293T_Nluc_CCNK-tagged cells); format: cell-based; details: 4 h incubation, HEK293T_Nluc_CCNK-tagged cells
# Outline: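 HEK293T cells with nanoluciferase knocked in at the N-terminus of endogenous CCNK (CRISPR) exposed to a 10-point titration (0 to 10 μM, 1:4) in Opti-MEM I + 4% FBS for 4 h. Nano-Glo substrate then added and luminescence read as a measure of Cyclin K abundance.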
# [3] = biological target: T2, DDB1-CDK12/Cyclin K ternary complex (Homo sapiens, UniProt Q16531+Q9NYV4); experiment: NanoBRET fold-change assay (HaloTag_CDK12 / NanoLuc_DDB1 in HEK293T); format: cell-based; details: 10 μM compound, 10 minutes
# T2 construct: expressed in transfected cells; host or cells: HEK293T wildtype cells, transient PEI transfection
# T2 sequence (Q9NYV4 whole entry): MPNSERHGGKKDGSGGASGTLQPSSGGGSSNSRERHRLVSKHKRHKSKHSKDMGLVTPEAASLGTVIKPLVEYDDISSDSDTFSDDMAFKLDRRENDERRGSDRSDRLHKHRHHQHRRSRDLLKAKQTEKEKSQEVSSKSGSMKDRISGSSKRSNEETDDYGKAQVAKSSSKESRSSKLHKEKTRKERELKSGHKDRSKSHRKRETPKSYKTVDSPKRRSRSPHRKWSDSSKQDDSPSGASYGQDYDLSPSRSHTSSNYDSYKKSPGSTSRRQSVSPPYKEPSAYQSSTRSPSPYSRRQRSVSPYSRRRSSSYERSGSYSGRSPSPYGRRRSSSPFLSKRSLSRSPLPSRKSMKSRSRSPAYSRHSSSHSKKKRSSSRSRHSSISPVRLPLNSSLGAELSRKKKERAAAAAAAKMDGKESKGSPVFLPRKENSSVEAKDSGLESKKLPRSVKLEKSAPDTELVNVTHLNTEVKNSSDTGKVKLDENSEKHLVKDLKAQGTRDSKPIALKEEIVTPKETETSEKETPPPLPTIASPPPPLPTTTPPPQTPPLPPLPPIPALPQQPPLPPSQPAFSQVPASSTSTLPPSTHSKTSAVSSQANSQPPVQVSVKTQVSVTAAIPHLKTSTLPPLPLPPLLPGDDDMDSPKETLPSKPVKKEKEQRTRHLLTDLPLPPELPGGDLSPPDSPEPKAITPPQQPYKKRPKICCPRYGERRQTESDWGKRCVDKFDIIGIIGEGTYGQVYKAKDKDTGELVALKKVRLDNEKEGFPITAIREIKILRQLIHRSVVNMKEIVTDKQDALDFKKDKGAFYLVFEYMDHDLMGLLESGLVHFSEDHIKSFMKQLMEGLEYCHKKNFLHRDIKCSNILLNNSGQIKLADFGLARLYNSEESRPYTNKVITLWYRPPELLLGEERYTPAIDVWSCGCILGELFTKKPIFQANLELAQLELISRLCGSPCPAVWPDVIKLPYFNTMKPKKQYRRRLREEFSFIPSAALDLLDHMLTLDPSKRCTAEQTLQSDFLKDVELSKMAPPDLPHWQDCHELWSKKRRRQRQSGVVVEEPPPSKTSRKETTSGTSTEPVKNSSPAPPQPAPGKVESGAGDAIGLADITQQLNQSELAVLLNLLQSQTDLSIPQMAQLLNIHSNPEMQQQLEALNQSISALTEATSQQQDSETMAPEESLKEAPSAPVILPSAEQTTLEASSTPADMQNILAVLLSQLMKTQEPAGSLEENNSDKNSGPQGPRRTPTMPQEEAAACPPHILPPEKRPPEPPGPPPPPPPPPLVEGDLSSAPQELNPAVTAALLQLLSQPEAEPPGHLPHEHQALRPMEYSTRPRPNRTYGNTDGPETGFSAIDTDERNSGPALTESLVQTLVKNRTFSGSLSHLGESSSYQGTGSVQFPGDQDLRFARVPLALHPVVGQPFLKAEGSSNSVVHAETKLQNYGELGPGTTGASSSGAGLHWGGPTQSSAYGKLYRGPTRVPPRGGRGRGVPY
# T2 sequence (Q16531 whole entry): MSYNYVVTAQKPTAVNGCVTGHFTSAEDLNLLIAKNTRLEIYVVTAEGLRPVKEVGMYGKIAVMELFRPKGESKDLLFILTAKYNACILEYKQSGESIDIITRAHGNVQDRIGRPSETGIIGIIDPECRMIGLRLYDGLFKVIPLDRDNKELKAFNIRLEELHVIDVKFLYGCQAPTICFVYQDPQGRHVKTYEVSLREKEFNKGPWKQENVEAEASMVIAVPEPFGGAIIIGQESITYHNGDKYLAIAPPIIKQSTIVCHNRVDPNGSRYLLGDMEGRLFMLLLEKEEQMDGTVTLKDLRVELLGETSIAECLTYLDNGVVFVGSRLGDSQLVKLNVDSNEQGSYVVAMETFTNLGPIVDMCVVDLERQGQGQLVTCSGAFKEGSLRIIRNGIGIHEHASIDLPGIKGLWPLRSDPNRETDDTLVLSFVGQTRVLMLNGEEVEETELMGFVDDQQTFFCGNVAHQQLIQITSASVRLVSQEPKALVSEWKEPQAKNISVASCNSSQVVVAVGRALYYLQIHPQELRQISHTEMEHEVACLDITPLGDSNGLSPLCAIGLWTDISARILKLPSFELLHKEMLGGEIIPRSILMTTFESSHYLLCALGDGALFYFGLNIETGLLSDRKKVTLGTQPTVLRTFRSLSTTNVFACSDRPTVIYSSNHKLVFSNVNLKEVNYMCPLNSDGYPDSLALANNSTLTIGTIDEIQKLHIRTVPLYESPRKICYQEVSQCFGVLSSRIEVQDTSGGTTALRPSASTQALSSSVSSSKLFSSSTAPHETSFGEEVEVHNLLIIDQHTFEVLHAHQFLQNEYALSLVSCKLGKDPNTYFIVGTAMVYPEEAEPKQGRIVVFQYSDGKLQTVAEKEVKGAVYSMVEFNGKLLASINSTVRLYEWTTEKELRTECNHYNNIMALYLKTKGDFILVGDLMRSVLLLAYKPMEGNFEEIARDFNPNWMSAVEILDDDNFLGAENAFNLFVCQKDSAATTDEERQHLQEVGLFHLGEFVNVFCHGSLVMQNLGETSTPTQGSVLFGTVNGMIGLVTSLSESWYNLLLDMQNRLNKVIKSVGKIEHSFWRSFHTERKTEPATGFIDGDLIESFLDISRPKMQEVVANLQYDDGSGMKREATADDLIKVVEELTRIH
# T2 sequence (O75909 whole entry partner): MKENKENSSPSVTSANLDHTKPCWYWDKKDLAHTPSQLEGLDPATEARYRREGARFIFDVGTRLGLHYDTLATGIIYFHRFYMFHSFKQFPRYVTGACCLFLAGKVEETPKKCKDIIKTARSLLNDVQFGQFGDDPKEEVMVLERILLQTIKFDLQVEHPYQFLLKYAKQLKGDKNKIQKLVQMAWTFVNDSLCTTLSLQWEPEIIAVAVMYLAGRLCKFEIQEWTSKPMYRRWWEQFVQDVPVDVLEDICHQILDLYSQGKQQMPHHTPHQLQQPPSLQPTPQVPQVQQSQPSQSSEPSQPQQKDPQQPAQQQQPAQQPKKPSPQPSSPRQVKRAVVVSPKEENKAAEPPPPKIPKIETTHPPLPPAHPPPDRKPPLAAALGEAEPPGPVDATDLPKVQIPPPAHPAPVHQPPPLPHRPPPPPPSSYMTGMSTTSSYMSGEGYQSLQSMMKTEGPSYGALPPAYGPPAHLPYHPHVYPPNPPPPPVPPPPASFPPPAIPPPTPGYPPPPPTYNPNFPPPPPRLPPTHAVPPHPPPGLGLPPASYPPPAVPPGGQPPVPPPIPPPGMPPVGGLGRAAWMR
# Outline: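 HEK293T cells transiently co-transfected with HaloTag_CDK12 and NanoLuc_DDB1, labelled overnight with 100 nM HaloTag 618 ligand (DMSO no-ligand control), then treated with compound at 10 μM final for 10 min at room temperature. BRET read as 460 nm donor and 647 nm acceptor emission after Nano-Glo substrate; reported as fold change.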
# [4] = biological target: T2, DDB1-CDK12/Cyclin K ternary complex; experiment: NanoBRET EC50 assay (HaloTag_CDK12 / NanoLuc_DDB1 in HEK293T); format: cell-based; details: for EC50: read-out: NanoBRET EC50 Activity Class
# Procedure: This assay measures the interaction/recruitment of CDK12/Cyclin K to DDB1, mechanistically validating the molecular glue pharmacology.
# HEK293T wildtype cells are seeded 800 k cells/well (DMEM+10% FBS+1% PS) in a 6-well plate and allowed to attach for ˜7 hours followed by a transient transfection of 1.5 μg HaloTag_CDK12 Plasmid [Table 1] and 0.15 μg NanoLuc_DDB1 plasmid [Table 1] per well using PEI. Cells are incubated at 37° C., 5% CO2, harvested after 24 hours and resuspended in assay media (Opti-MEM Reduced serum media, no phenol red, 4% FBS, 1% PS). Cells are adjusted to 2.3×10^5 cells/ml and treated with HaloTag 618 Ligand at 100 nM or DMSO. 8000 cells are seeded per well in triplicates per compound in a white-walled 384-well plate, one negative control treated with DMSO instead of HaloTag 618 Ligand is seeded in triplicates and the 384-well plate is incubated at 37° C., 5% CO2 overnight. Compound stock solutions are prepared in Opti-MEM−/− (Opti-MEM I Reduced serum media, no phenol red) at 8× and used to treat the cells at a final concentration of 1× at 10 μM. Cells and compounds are incubated for 10 minutes at room temperature followed by addition of NanoBRET Nano-Glo substrate following manufacturer's protocols. The plate is shaken for 30 sec followed by immediate measurement of donor emission (NanoBRET Blue at 460 nm) and acceptor emission (BRET Deep Red at 647 nm) for 0.5 s.
# The assay setup is identical to “NanoBRET fold change experimental setup”. Instead of treating cells in […] with 10 μM compound, a 10-point titration starting at 20 μM is performed with a dilution factor of 1:4, covering α range of 20000 nM-0.076 nM.
# KBM7 cells (wild-type) = experiment: KBM7 CTG EC50 assay (UBE2M wild-type); format: cell-based, human; details: for EC50: Homo sapiens, KBM-7, 72 h incubation, CellTiter-Glo, read-out: KBM7 CTG EC50 (UBE2M wild-type) Activity Class; for Ratio UBE2M WT to KO: ratio of anti-proliferative activity in KBM7 wild-type versus UBE2M knock-out cells (fold)
# Outline: (§4)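 Wild-type KBM7 cells, or KBM7 cells with a hypomorphic UBE2M mutation that impairs Cullin-RING ligase activity, were treated for 72 h with compounds in a 10-point, 1:4 titration (0 to 20 μM). Viability was read by CellTiter-Glo 2.0 luminescence.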
# [5] = tested on: KBM7 cells harboring a hypomorphic UBE2M mutation; experiment: KBM7 CTG EC50 assay (UBE2M knock-out); format: cell-based; details: Homo sapiens, KBM-7; 72 h incubation, CellTiter-Glo; read-out: KBM7 CTG EC50 (UBE2M knock-out) Activity Class
# Outline: as §4
# [6] = 10-point titration from 20 μM, HEK293T
Compound,CC50 (KBM7_WT cells) [µM],CC50 (CUL4B_MUT KBM7 cells) [µM],CC50 (UBE2M_MUT KBM7 cells) [µM],further results
Cc1cn2nc(NCCNc3ccc(C#N)cn3)sc2n1 [Example Z5],3.75,> 10,> 10,–
Cc1cnc(NC(=O)C2CC(=O)N(c3cccc(Cl)c3Cl)C2)s1 (centres unmarked) [Example Z13],1.29,5.68,6.99,–
CN(C)C/C=C/C(=O)Nc1ccc(C(=O)N2CCC[C@@H](Nc3ncc(Cl)c(-c4c[nH]c5ccccc45)n3)C2)cc1 [THZ-531],–,–,–,"Cyclin K degradation, in words (Cyclin K): did not cause cyclin K degradation"
Cc1cc(NC(C)C(=O)Nc2ccc(Cl)cn2)ccc1Br (centres unmarked) [Example Z6],1.57,6.06,6.8,–
O=C(CCn1cnc2ccccc2c1=O)Nc1ccc(Br)cn1 [Example Z7],1.81,> 10,> 10,–
"HaloTag_CDK12 (N-terminal HaloTag, G4S linker, CDK12 (713-1052)) (from UniProt Q9NYV4 713-1052) (HEK293T cells)",–,–,–,NanoBRET fold increase [1]: 3 to 4 fold
"O=C(Cc1cnc2ccccc2c1)Nc1ncc(C(F)(F)F)s1 [Example 3-36, 2-(quinolin-3-yl)-N-(5-(trifluoromethyl)thiazol-2-yl)acetamide]",–,–,–,"Cdk12 inhibition, in words [2]: weak Cdk12 inhibition; DC50 (CCNK; read-out: NanoLuc-CCNK degradation DC50 Activity Class): ≤ 0.1 µM; NanoBRET fold-change Activity Class [3]: C (2-3 fold increase); activity in NanoBRET assay (ternary complex formation), in words [4]: good activity; NanoBRET EC50 Activity Class [4, 6]: B (0.50 μM≤EC50≤0.25 μM); EC50 (KBM7 cells (wild-type)): ≤ 0.25 µM; activity in KBM7 cytotoxicity assay, in words (KBM7 cells (wild-type); KBM7): extremely potent activity; EC50 [5]: ≤ 0.25 µM"
O=C(NCCCNc1ccc(C(F)(F)F)cn1)c1ccccc1 [Example Z14],4.69,> 10,> 10,–
O=C1CC(CNc2ncc(Cl)cn2)CN1CCc1ccccc1 (centres unmarked) [Example Z10],7.82,> 10,> 10,–
Cc1ccc(NC(=O)C2CC(=O)N(c3cccc(Cl)c3)C2)nc1 (centres unmarked) [Example Z9],2.35,> 10,> 10,–
COc1ccc2cc(C(C)C(=O)Nc3ncc(C)s3)ccc2c1 (centres unmarked) [Example Z2],1.35,> 10,> 10,–
O=C(Nc1nc2c(s1)CCCC2)C1CCCN1C(=O)c1ccccc1 (centres unmarked) [Example Z3],11.8,> 10,> 10,–
COc1ccc(C)cc1N1CC(C(=O)Nc2nc3ccccc3[nH]2)CC1=O (centres unmarked) [Example Z11],0.92,2,2.75,–
CC[C@H](CO)Nc1nc(NCc2ccc(-c3ccccn3)cc2)c2ncn(C(C)C)c2n1 [CR8],–,–,–,"Cyclin K degradation, in words (Cyclin K): cause Cyclin K degradation"
"Cc1ccc2c(CC(=O)Nc3ccc(C4CC4)cn3)coc2c1C [Example 3-52, N-(5-cyclopropylpyridin-2-yl)-2-(6,7-dimethylbenzofuran-3-yl)acetamide]",–,–,–,"NanoLuc-CCNK degradation DC50 Activity Class (CCNK): B (0.50 μM≤DC50<0.10 μM); NanoBRET fold-change Activity Class [3]: A (greater than 4-fold increase); EC50 [4, 6]: ≤ 0.25 µM; EC50 (KBM7 cells (wild-type)): ≤ 0.25 µM; Ratio UBE2M WT to KO (KBM7 cells (wild-type)): 27.0; EC50 [5]: 1 to 10 µM"
"CC(C)c1cnc(NC(=O)Cc2cn3cc(F)ccc3n2)s1 [Example 3-4, 2-(6-fluoroimidazo[1,2-a]pyridin-2-yl)-N-(5-isopropylthiazol-2-yl)acetamide]",–,–,–,"NanoLuc-CCNK degradation DC50 Activity Class (CCNK): B (0.50 μM≤DC50<0.10 μM); NanoBRET fold-change Activity Class [3]: A (greater than 4-fold increase); EC50 [4, 6]: ≤ 0.25 µM; EC50 (KBM7 cells (wild-type)): ≤ 0.25 µM; Ratio UBE2M WT to KO (KBM7 cells (wild-type)): 82.6; EC50 [5]: 1 to 10 µM"
Cc1ccc2c(CC(=O)Nc3nccs3)coc2c1C [Example Z1],7.12,> 10,> 10,–
